Measured values: article PMC12122562, “Phase 1 studies of the indenoisoquinolines LMP776 and LMP744 in patients with solid tumors and lymphomas” (Cancer Chemotherapy and Pharmacology, 2025)

Biological target: T1, TOP1cc (Homo sapiens, UniProt P11387)
T1 construct: paired pre-treatment and on-treatment tumor biopsies (C1D2, 2–4 h after dosing) from 6 patients receiving LMP744 at the MTD; from tissue; host or cells: core needle tumor biopsies from patients (LMP744 expansion cohort)
T1 sequence (P11387 2-765 limits assumed): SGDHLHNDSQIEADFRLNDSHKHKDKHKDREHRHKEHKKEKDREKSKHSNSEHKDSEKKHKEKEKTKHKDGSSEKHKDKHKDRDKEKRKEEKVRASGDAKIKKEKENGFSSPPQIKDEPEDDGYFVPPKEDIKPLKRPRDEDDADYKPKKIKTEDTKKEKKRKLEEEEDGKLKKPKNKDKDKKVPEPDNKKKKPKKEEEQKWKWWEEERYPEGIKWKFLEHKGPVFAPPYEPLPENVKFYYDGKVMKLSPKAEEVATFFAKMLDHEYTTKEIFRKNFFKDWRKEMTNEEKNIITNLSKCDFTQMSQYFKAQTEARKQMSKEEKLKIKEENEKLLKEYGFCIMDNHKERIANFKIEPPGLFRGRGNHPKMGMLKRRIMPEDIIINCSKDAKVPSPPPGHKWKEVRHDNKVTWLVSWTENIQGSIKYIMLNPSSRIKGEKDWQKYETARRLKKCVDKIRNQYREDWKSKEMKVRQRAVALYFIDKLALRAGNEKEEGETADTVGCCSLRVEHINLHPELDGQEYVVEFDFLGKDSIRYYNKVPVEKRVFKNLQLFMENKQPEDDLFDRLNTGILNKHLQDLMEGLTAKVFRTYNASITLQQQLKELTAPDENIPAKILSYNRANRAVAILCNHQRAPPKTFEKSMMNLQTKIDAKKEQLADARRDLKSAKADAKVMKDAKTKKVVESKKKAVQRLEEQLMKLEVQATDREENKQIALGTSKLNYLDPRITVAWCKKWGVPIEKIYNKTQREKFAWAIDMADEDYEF
Test: qIF of paired tumor biopsies: TOP1cc foci
Assay type: in vivo
Details: for TOP1cc: C1D2
Text: The LMP744 protocol collected pre-treatment (baseline) and on-treatment paired biopsies from patients in the expansion cohort. Core needle tumor biopsies (18-gauge) were collected and flash-frozen at point of collection per NCI SOPs (https://dctd.cancer.gov/ResearchResources/biomarkers/docs/par/SOP340507_Biopsy_Frozen.pdf) as described to preserve labile post-translational modifications such as phosphorylation. Biopsy pairs were thawed in formalin, fixed in paraffin embedded together with control tissues following NCI SOP340550 (https://dctd.cancer.gov/ResearchResources/biomarkers/DDR3/SOP340550_Biopsy_Section_Testis_Jejunum_Controls.pdf). TOP1 and TOP1cc were measured with a cocktail containing custom-conjugated rabbit monoclonal antibody anti-TOP1-DIG (Abcam, EPR5376 (2)) and mouse monoclonal antibody anti-TOP1cc (clone 1.1A [34, 35], EMD Millipore) that were detected with reporter secondary antibodies AlexaFluor-647 IgG fraction monoclonal mouse anti-digoxin (Jackson ImmunoResearch) and goat/anti-mouse AlexaFluor-488, respectively. Phosphorylated KAP1 (pKAP1, phosphorylated at S824) was measured using custom-conjugated pKAP1-pS824-DNP (Abcam, EPR5248) and detected with AlexaFluor-488 conjugated with anti-dinitrophenyl-KLH rabbit IgG Antibody Fraction (DNP-488, ThermoFisher). […] TOP1, γH2AX, pNBS1, and pKAP1 were measured as the percentage of DAPI-stained tumor cell nuclear area that was positive for the biomarker (% NAP); RAD51 [19] and TOP1cc was measured as a function of the percentage of nuclei with ≥ 5 foci (RAD51) or ≥ 19 foci (TOP1cc). Apoptosis was measured using a validated IFA of tumor cells positive for both cCasp3 blebbing in the cytoplasm and γH2AX in the nucleus. Anti-SLFN11 rabbit monoclonal antibody (Cell Signaling Technology, clone D8W1B) was detected by immunohistochemistry (IHC) using Bond Polymer Detection kit (Leica) and scanned in 20X widefield Aperio (Leica), and the distribution of staining intensity of tumor cell nuclei graded as 0, 1 + , 2 + or 3 + was converted into an H-score. […]

SMILES: COc1cc2c3c(n(CCCNCCO)c(=O)c2cc1OC)-c1cc2c(cc1C3=O)OCO2 [LMP744]
- TOP1cc, change in the biopsy cohort (6 patients at MTD, P = 0.1373): no significant changes
- TOP1cc (patient 29, MTD): neither biomarker changed with treatment
- TOP1cc (patient 31, MTD): decreased nearly to background levels
